# Reference: PubChem BioAssay AID463206 (Broad Institute, 2010)
# Activity calls are given as the source filed them.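 The calls were made as follows: active = caspase luminescence falls with dose and the half-maximal concentration AC50 from the fitted curve is at or below a set limit; inconclusive = flat fit at 30 to 70% signal loss, or invalid fit; inactive = AC50 above the limit, or signal rises instead.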
# Tested on: INS-1E cytokine-induced caspase-3/7, Caspase-Glo luminescence, 48 h
# Experiment: suppression of cytokine-driven beta-cell apoptosis – INS-1E rat cells, luminescence, orthogonal assay for beta-cell apoptosis protection project, dose response (AID 463206)
row,Compound,AC50
1,O=C(Nc1ccc(Cl)cc1)c1nc[nH]c1C(=O)NCCN(CCNC(=O)c1[nH]cnc1C(=O)Nc1ccc(Cl)cc1)CCNC(=O)c1[nH]cnc1C(=O)Nc1ccc(Cl)cc1,> 26 µM (inactive)
2,CN1c2ccccc2N(C)C1(C)c1ccccc1,> 26 µM (inactive)
3,O=C(Nc1cccnc1)c1ccc([N+](=O)[O-])s1,> 26 µM (inactive)
4,CCC(=O)N1c2ccc(S(=O)(=O)N3CCN(c4ccc([N+](=O)[O-])cc4)CC3)cc2CC1C (stereo not given),> 26 µM (inactive)
5,CC(C)C[C@H]1CN=C(Nc2ccccc2)N1CC1CCC(C(C)(C)C)CC1 (stereo not given in full),> 26 µM (inactive)
6,Cc1cc(NC2CCCCC2)nc(NCc2ccccc2)n1,> 26 µM (inactive)
7,CCCCCCCCCCOC(=O)Cn1c(COc2ccccc2OC)[n+](C)c2ccccc21,> 26 µM (inactive)
8,C=CCc1cccc(/C=N/NC(=O)CCC(=O)Nc2ccc(F)cc2)c1O,> 26 µM (inactive)
9,COc1cccc(C(=O)Oc2c(CN3CCOCC3)cc(Cl)c3cccnc23)c1,> 26 µM (inactive)
10,O=C(/C(=C/c1cccc(Cl)c1)c1nc2ccccc2[nH]1)c1ccccc1,> 26 µM (inactive)
11,CCCCOc1cc(NCc2ccccc2)c2ncn(C(C)C)c2c1,> 26 µM (inactive)
12,O=C(N/N=C/c1cc(Br)cc(Cl)c1O)c1ccc2c(c1)OCO2,> 26 µM (inactive)
13,Cn1cc(/C=C/c2cc[n+](C)cc2)c2cc(Cl)ccc21,> 26 µM (inactive)
14,S=C(NCc1ccc(Cl)cc1)NC12CC3CC(CC(C3)C1)C2,> 26 µM (inactive)
15,Cc1cc(C)nc(SCC(=O)Nc2ccnc3ccccc23)n1,> 26 µM (inactive)
16,Cc1ccc(C)c(N2CCN(C(=O)CCCOc3cc(=O)n(C)c4ccccc34)CC2)c1,> 12 µM (inactive)
17,Fc1ccc2nc(Nc3nc4c(F)cc(F)cc4s3)sc2c1,> 26 µM (inactive)
18,Cc1ccc2nc(N(CCCN(C)C)C(=O)c3ccc(S(=O)(=O)N4CCc5ccccc5C4)cc3)sc2c1,> 26 µM (inactive)
19,C/C(=N\NC(=O)c1cc(Br)ccc1O)c1ccccn1,> 26 µM (inactive)
20,Cc1cc(F)ccc1S(=O)(=O)Nc1ccccc1C(=O)Nc1ccccc1-c1nc2ccccc2[nH]1,> 26 µM (inactive)
21,CC1CCCCC1NS(=O)(=O)c1ccc(S(=O)(=O)NCc2ccncc2)cc1 (stereo not given),> 26 µM (inactive)
22,O=C(Cc1cccs1)N/N=C\c1ccc([N+](=O)[O-])s1,> 26 µM (inactive)
23,Cc1nc2ccccn2c1C(=O)/C=C/c1cccc([N+](=O)[O-])c1,> 26 µM (inactive)
24,Cc1ccc(NC(=O)Cc2nn(C)c(=O)c3ccccc23)cc1F,> 26 µM (inactive)
25,Cc1ccc(-c2sc(-c3ccccc3)nc2CC(=O)Nc2ccccc2F)cc1,> 26 µM (inactive)

row,Compound,AC50
1,C=C1C(O)[C@@H]2O[C@]3(CC[C@H](/C=C/C(C)[C@@H]4CC(C)=CC5(O[C@H](C[C@@](C)(O)C(=O)O)CCC5O)O4)O3)CC[C@H]2O[C@@H]1C(O)CC(C)[C@H]1OC2(CCCCO2)CCC1C (stereo not given in full),> 26 µM (inactive)
2,CCOC(=O)c1cnc(-n2nc(C)cc2C)nc1NC1CCCC1,> 26 µM (inactive)
3,Oc1c(Br)cc(Br)cc1/C=N/Nc1ccc(Cl)nn1,> 26 µM (inactive)
4,CC(C)C[C@H](NC(=O)c1nc[nH]c1C(=O)N[C@@H](CC(C)C)C(=O)OC(C)(C)C)C(=O)OCc1ccccc1,> 26 µM (inactive)
5,Cc1occc1C(=O)N1CCCC(N2CCN(c3cccc(C(F)(F)F)c3)CC2)C1 (stereo not given),> 26 µM (inactive)
6,CC(=O)c1ccc(NC(=S)NC(C)c2ccc(Cl)cc2Cl)cc1 (stereo not given),> 26 µM (inactive)
7,CCOC(=O)c1c(C)[nH]c(C(=O)OCC(=O)NC(C)(C)C)c1C,> 26 µM (inactive)
8,Oc1ccc(N=Nc2ccccc2C(F)(F)F)c2cccnc12,> 26 µM (inactive)
9,Cc1ccc2nc(-c3ccccn3)c(Nc3ccccc3C)n2c1,> 26 µM (inactive)
10,C#CCOCCOCCOCCNc1nc(N2CCN(C(=O)CCCCCCCCCCNC(=O)[C@H](CCCCN)n3cc(CCO)nn3)CC2)nc(N2CCN(C(=O)CCCCCCCCCCNC(=O)[C@H](CCCCN)n3cc(C[C@@H](C)CC)nn3)CC2)n1,> 26 µM (inactive)
11,CCOc1ccc(OCc2ccc(C(=O)N/N=C(\C)c3ccccn3)cc2)cc1,> 26 µM (inactive)
12,O=[N+]([O-])c1ccc(-c2nc3ccc([N+](=O)[O-])cc3[nH]2)cc1,> 26 µM (inactive)
13,CC(Sc1nnc2c(n1)[nH]c1ccccc12)C(=O)N(C)C1CCCCC1 (stereo not given),> 12 µM (inactive)
14,COc1ccc(C(=O)NC(=S)NNC(=O)c2cnccn2)cc1OC,> 26 µM (inactive)
15,Cc1cc2nc(-c3ccc[nH]c3=O)[nH]c2cc1C,> 26 µM (inactive)
16,N#CC1=C(N)Oc2c(ccc3cccnc23)C1c1cccnc1 (stereo not given),> 26 µM (inactive)
17,COc1cccc(CNCCc2c[nH]c3ccccc23)c1OCc1ccccc1F,> 26 µM (inactive)
18,O=C(O)c1ccc(/C=C2\SC(=S)N(Nc3ccccc3)C2=O)cc1,> 26 µM (inactive)
19,CCOC(=O)/C(=C\c1ccc(OC(F)F)cc1)C1=Nn2c(nnc2-c2ccc(Cl)cc2)SC1,> 26 µM (inactive)
20,O=C1C(Cl)=C(NCc2cccnc2)C(=O)c2ccccc21,> 26 µM (inactive)
21,COc1ccc(-n2c(-c3ccc(Cl)cc3)c[n+]3c2CCCCC3)cc1,> 26 µM (inactive)
22,COc1cc2cc(C(=O)N3CCOCC3)cc(-c3ccc(C)cc3)c2cc1OC,> 26 µM (inactive)
23,CC(C)(C)C(=O)NC(=S)NNC(=O)c1ccc(-c2ccccc2)cc1,> 26 µM (inactive)
24,O=C(Nc1ccc(N2CCN(Cc3ccccc3Cl)CC2)cc1)c1cccnc1,> 26 µM (inactive)
25,COc1ccc(CNc2ncnc3sccc23)cc1,> 26 µM (inactive)

row,Compound,AC50
1,O=C(c1ccc2c(c1)[nH]c(=S)n1c3ccccc3nc21)N1CCN(c2cccc(Cl)c2)CC1,> 26 µM (inactive)
2,Cn1cc(CNCc2ccc(OC(F)(F)F)cc2)c(-c2ccc3c(c2)OCCO3)n1,> 26 µM (inactive)
3,Cc1cc(C)c(S(=O)(=O)/N=C2\C=C(Nc3ccc(C(=O)O)cc3)C(=O)c3ccccc32)c(C)c1,> 26 µM (inactive)
4,CCN(CC)CCOc1ccc2c(c1)C(=NO)c1cc(OCCN(CC)CC)ccc1-2,6.61 µM
5,Cc1ccc(S(=O)(=O)/N=C2/C=C(Sc3ncn[nH]3)C(=O)c3ccccc32)cc1,> 26 µM (inactive)
6,CC(C)NC(=S)N/N=C/c1cc(Br)ccc1O,> 26 µM (inactive)
7,COc1ccc(-c2sc3ccccc3c2-c2ccc(OCCN3CCCCC3)cc2)cc1,> 26 µM (inactive)
8,Cc1cccc(NC(=O)/C=C/c2ccc([N+](=O)[O-])s2)c1,2.71 µM
9,CCN(CC)CCNc1ncnc2c1sc1nc(N3CCOCC3)c3c(c12)CC(C)(C)SC3,23.6 µM
10,C/C(=N\NC(=O)c1ccc(C)cc1)c1c(C)[nH]n(-c2ccccc2)c1=O,> 26 µM (inactive)
11,O=C(Nc1cccc(C(F)(F)F)c1)Nc1ccc(N2CCCC2)c(S(=O)(=O)Nc2ccccc2Cl)c1,> 26 µM (inactive)
12,CC1CCN(Cc2c(C(=O)N/N=C/c3ccccc3O)nnn2-c2nonc2N)CC1,> 26 µM (inactive)
13,COc1ccc2c(c1)[nH]c1c(N3CCN(Cc4ccc5c(c4)OCO5)CC3)ncnc12,> 26 µM (inactive)
14,Cc1oc2c(c1C(=O)N1CCC(C)CC1)C(=O)c1ccccc1C2=O,> 26 µM (inactive)
15,Cc1cc(C)c(OCC(O)CNC(C)(C)C)c(C)c1 (stereo not given),> 26 µM (inactive)
16,Cc1cccc(CSC(Nc2ccc(F)cc2)=C(C#N)C#N)c1,> 26 µM (inactive)
17,C#CCOCCOCCOCCNc1nc(N2CCN(C(=O)CCCCCCCCCCNC(=O)[C@H]([C@@H](C)CC)n3cc(CCCCN=C(N)N)nn3)CC2)nc(N2CCN(C(=O)CCCCCCCCCCNC(=O)[C@H](CO)n3cc(CCCCCN)nn3)CC2)n1,> 26 µM (inactive)
18,CCOc1ccc(S(=O)(=O)N(C)c2ccc(OCC(=O)Nc3nc4ccccc4s3)cc2)cc1,> 26 µM (inactive)
19,COc1ccc(N(C)S(=O)(=O)c2cccc(C(=O)Nc3nc(C)c(C(C)=O)s3)c2)cc1,> 26 µM (inactive)
20,CCc1ccc(-c2nn(-c3ccccc3)cc2CSC(=N)N)cc1,> 26 µM (inactive)
21,CCCCCCn1ccc(=N)cc1,> 26 µM (inactive)
22,Cc1ccc(Nc2c(-c3ccccn3)nc3cccc(C)n23)cc1,> 26 µM (inactive)
23,CCCOc1ccc(Br)cc1CSC(=N)N,> 12 µM (inactive)
24,Cc1ccc2nc(NC(=O)/C=C/c3ccc4c(c3)OCO4)sc2c1,> 26 µM (inactive)
25,COc1ccc(O)c(/C=N/NC(=O)c2ccc(CSc3nc(C)cc(C)n3)cc2)c1,> 26 µM (inactive)
